# Reference: US7595336B2, “Isatine derivatives with neurotrophic activity” (Neurosearch A/S, priority 2002, dated 2009)
# What was measured:
# [1] = test system: PC12 cells; assay: Survival of differentiated PC12 cells in serum-free medium (MTS); type: cell-based; settings: for Survival Effects on Differentiated PC12 Cells in Serum-free Medium (% of 3 nM NGF): 4 days incubation, MTS; for Rescue of PC12 cells in serum-free medium: viability as reduction of MTS
# Description: In this experiment the protective effect of the compounds on the survival of the pheochromocytoma cell line PC12 deprived of other survival factors were assessed following differentiation of the cells to a neuron-like phenotype.
# Cells were seeded in collagen coated 96 well plates at a cell density of 8,000/cm^2 in DMEM with 7.5% Foetal Calf Serum (FCS), 7.5% Donor Horse Serum (DHS) and 2 nM NGF and cultured for 6 days. The medium was then changed to DMEM without serum supplemented with the compound in the indicated concentrations. As a positive control, parallel wells receiving serum-free DMEM without addition of vehicle […] 3 nM NGF were included.
# After 4 days of incubation, cell viability was evaluated by using MTS (3-(4,5-dimethylthiazol-2-yl)-5-(3-carboxymethoxyphenyl)-2-(4-sulfonyl)2H-tetrazolium) which is reduced by metabolically active cells. Data are expressed as % of the response seen with 3 nM NGF corrected for residual MTS reduction activity in the parallel serum-free cultures (“% of NGF control”).
# [2] = test system: transient global ischaemia in gerbils (hippocampal CA1-layer damage); settings: gerbil; 4 minutes ischaemia; 2×30 mg/kg ip. after the insult; four days later
# Description: Gerbils were anaesthetised with halothane, right and left carotid arteries located and occluded for 4 minutes. Animals were kept at normal body temperature before and after the operation using heating lamps. During the operation, the gerbils were placed on heating pads, the body temperature was controlled and maintained at 37±0.5° C.
# Four days later, the animals were sacrificed, brains removed and cooled to −70° C. Thereafter, the brains were sectioned in 20 μm thick sections of which 5-7 with hippocampal tissue were selected and stained with hematoxylin-eosin.
# The degree of hippocampal damage was categorised into one of four groups:
# Group 1: no damage in the CA1-layer;
# Group 2: the CA1-layer partly damaged;
# Group 3: the CA1-layer completely damaged; and
# Group 4: damage in more then just the CA1-layer. The total ischaemia score was obtained as the sum of scores in the right- and left hemisphere. Kendall's tau test was used for statistic evaluation.
# [3] = test system: PC12 cells; settings: two days
# Description: In this experiment the ability of the compounds to potentiate NGF-induced neurite outgrowth in PC12 cells was assessed.
# PC12 cells were seeded in tissue culture plates coated with collagen at a cell density of 15,000/cm^2 in DMEM with 7.5% FCS and 7.5% DHS. Next day the medium was changed to medium supplemented with the NS compound in the absence or presence of NGF.
# Two days after the medium change, cells were fixed in 4% paraformaldehyde and stained for neurofilament. Cells were fixed by in tissue culture plates by incubation in 4% paraformaldehyde in PBS followed permeabilization in 0.05% Triton-X100 in the presence of 10% DHS to block non-specific binding sites. After washing, the plates were incubated with anti-neurofilament (NF) antibody (clone RT97) from Boehringer diluted 1:200 in 0.05% Triton-X100/10% DHS followed by incubation with biotinylated anti-mouse immunoglobulin RPN1001 (Amersham) diluted 1:200. NF-immunoreactive cells were stained using the ABC-complex/HRP kit K0355 (DAKO) and 3,3-diaminobenzidine tetrahydrochloride (DAB) as substrate.
# Estimation of total cell number per well, as well as the total neurite length was done using unbiasedly 2D stereology (CAST-grid system connected to a Olympus BH-2 microscope).
# [4] = test system: Akt kinase; settings: 1-3 μM; PC12 cells; 24 hours with NGF
# Description: (§1) Approximately 200,000 PC12 cells were plated in a 24 well plate in DMEM with 7.5% FCS and 7.5% DHS and incubated ON.
# (§2) Total cell lysate was electrophoresed on 8-18% gradient SDS gels which were electroblotted to PVDF membranes. Phosphorylated ERK1 and ERK2 were immunodetected by using mouse anti-Phospho-p44/p42 MAP kinase E10 mAb (New England Biolabs #9106) and HRP-linked anti-mouse antibody. Phosphorylated Akt kinase was immunodetected by using rabbit phospho-specific Akt (Ser473) antibody (New England Biolabs # 9271) and HRP-linked anti-rabbit antibody. Bands were detected by chemilumininescence using the ECL system (Amersham).
# [5] = test system: the ERKs (ERK1 and ERK2); settings: 1-3 μM; PC12 cells; 24 hours with NGF
# Description: as §1, §2
# [6] = test system: CREB; settings: after 5 minutes stimulation (not shown)
# Description: The cyclic AMP-responsive element binding protein (CREB) is a post-translationally activated transcription factor that has been implicated in numerous neuronal functions including cell survival, differentiation and neurotransmission.
# Approximately 7.5×10^5 PC12 cells per well were plated in collagen coated 6-well plates in DMEM with 0.75% FCS and 0.75% DHS and incubated for 48 hours. Cells were then further starved for 2 hours in serum free DMEM before stimulation with the indicated compounds for 5, 10 or 20 minutes. Cells were harvested in 1× heated sample buffer (2% SDS, 400 mM Tris, pH 8.0, 10 mM DTT and 0.25 mM Na3VO4) and the cell lysates were electrophoresed on 8-18% gradient SDS gels, which were electroblotted to PVDF membranes.
# Phosphorylated CREB were immunodetected by using rabbit anti-Phospho-CREB (UpState Biotechnology #06-519) followed by HRP-linked anti-rabbit antibody (Amersham Life Science #NA 934). Bands were detected by chemilumininescence using the ECL system (Amersham).
# [7] = test system: dopaminergic neurons from rat E14 ventral mesencephali; settings: 1 μM; E14 rat VM; 7 days in culture
# Description: Embryonic rat brains (Wistar; E14) were isolated under sterile conditions placed in chilled Gey's balanced salt solution (GIBCO) with glucose (6.5 mg/ml).
# The ventral mesencephali were dissected out, cut into small tissue pieces, placed in Neurobasal medium with B27 supplement and gently pressed through a 80 μm Nitex filter. The cells were counted using a hemocytometer and plated in a 6 well multi-dish at a density of approximately 2.0×10^6 cells/well. Culture dishes were pre-coated with poly-D-lysine.
# After 1 hour, the medium was removed and fresh medium added (1.5 ml/well). […] Untreated cultures served as controls. The medium was changed every other day and antimitotics and antibiotics were not used at any stage.
# After 7 days in culture, cultures were then immunostained for tyrosine hydroxylase (TH). Briefly, the cells were washed in 0.05M tris-buffered saline (TBS, pH 7.4) containing 1% Triton X-100 for 3×15 minutes and incubated with 10% foetal bovine serum (FBS, Life Technologies) in TBS for 30 minutes. The cells were then incubated for 24 hours at 4° C. with monoclonal mouse anti-TH antibody (Boehringer Mannheim) diluted 1:600 in TBS with 10% FBS. After rinsing in TBS with 1% Triton X-100 for 3×15 minutes, cells were incubated for 60 minutes with biotinylated anti-mouse IgG antibody (Amersham) diluted 1:200 in TBS with 10% FBS. […] TH-immunoreactive (ir) cells were counted manually.
# [8] = test system: dopaminergic neurons from pig E28 ventral mesencephali; settings: 1 μM; E28 pig VM slice cultures; 21 days in vitro
# Description: Ventral mesencephali (VM) were isolated from porcine embryos (E28) under sterile conditions, chopped into 400 μm slices and placed in chilled Gey's balanced salt solution (GIBCO) with glucose (6.5 mg/ml).
# In brief, slices were placed on semiporous membranes (Millipore, 0.3 μm; 4 slices/membrane) placed as inserts in 6-well plates (Costar) with serum containing medium (Gibco BRL). Each well contained 1 ml medium (50% Optimem, 25% horse serum, 25% Hank's balanced salt solution (all GIBCO)) supplemented with D-glucose to a final concentration of 25 mM.
# At day 3, the medium was replaced by defined serum-free medium (Neurobasal medium with B27 supplement from Life Technologies). The cultures were grown in an incubator with 5% CO2 at 36° C. for 21 days after which the sections were immunostained for TH as described in Example 4. […] Untreated cultures served as controls. The medium was changed twice a week and antimitotics and antibiotics were not used at any stage.
# The area of the culture slice was delineated and a counting frame was randomly placed to mark the first area to be sampled.
Compound,Survival Effects on Differentiated PC12 Cells in Serum-free Medium (% of 3 nM NGF) ([1]; 0.1 μM),Survival Effects on Differentiated PC12 Cells in Serum-free Medium (% of 3 nM NGF) ([1]; 0.2 μM),Survival Effects on Differentiated PC12 Cells in Serum-free Medium (% of 3 nM NGF) ([1]; 0.5 μM),Survival Effects on Differentiated PC12 Cells in Serum-free Medium (% of 3 nM NGF) ([1]; 0.75 μM),Survival Effects on Differentiated PC12 Cells in Serum-free Medium (% of 3 nM NGF) ([1]; 1 μM),Survival Effects on Differentiated PC12 Cells in Serum-free Medium (% of 3 nM NGF) ([1]; 2 μM),Survival Effects on Differentiated PC12 Cells in Serum-free Medium (% of 3 nM NGF) ([1]; 5 μM),Survival Effects on Differentiated PC12 Cells in Serum-free Medium (% of 3 nM NGF) ([1]; 7.5 μM),Survival Effects on Differentiated PC12 Cells in Serum-free Medium (% of 3 nM NGF) ([1]; 10 μM),Rescue of PC12 cells in serum-free medium [1],Animals with no or only partially damage in the CA1 neurons of the hippocampus [2],"Effect on neurite outgrowth in PC12 cells, compound alone ([3]; 1 and 3 μM, without NGF)",Potentiation of NGF-induced neurite outgrowth in PC12 cells ([3]; with NGF),Effect on NGF-induced phosphorylation of the Akt kinase [4],Effect on NGF-induced phosphorylation of the ERKs [5],Combined effect of NGF and compound on CREB phosphorylation [6],More TH-immunoreactive cells compared to untreated control cultures [7],More TH-immunoreactive cells compared to untreated control cultures [8]
"Cl.O=C1Nc2c(cc(-c3ccc(Cl)cc3)c3c2CCCC3)C1=NO [Compound G-2, 5-(4-Chlorophenyl)-6,7,8,9-tetrahydro-1-H-pyrrolo[3.2-h]naphthalene-2,3-dione-3-oxime hydrochloric acid salt]",7.77 ± 1.86 % of 3 nM NGF,16.58 ± 4.36 % of 3 nM NGF,17.30 ± 4.43 % of 3 nM NGF,23.54 ± 1.60 % of 3 nM NGF,27.63 ± 6.91 % of 3 nM NGF,33.31 ± 5.22 % of 3 nM NGF,50.25 ± 4.28 % of 3 nM NGF,54.83 ± 4.37 % of 3 nM NGF,74.66 ± 5.70 % of 3 nM NGF,dose-dependent rescue,≈ 50%,,,,,,,
"O=C1Nc2ccc(-c3ccc(Cl)cc3)cc2C1=NO [Compound G-3, 5-(4-Chlorophenyl)isatin-3-oxime]",−0.34 ± 1.59 % of 3 nM NGF,23.83 ± 3.61 % of 3 nM NGF,28.20 ± 2.55 % of 3 nM NGF,30.66 ± 3.83 % of 3 nM NGF,36.11 ± 3.02 % of 3 nM NGF,41.53 ± 3.00 % of 3 nM NGF,49.63 ± 4.67 % of 3 nM NGF,67.60 ± 5.54 % of 3 nM NGF,72.23 ± 4.34 % of 3 nM NGF,dose-dependent rescue,,,,,,,,
"CN1CCc2c(-c3ccc(Cl)cc3)cc3c(c2C1)NC(=O)C3=NO.Cl [Compound G-1, 5-(4-Chlorophenyl)-8-methyl-6,7,8,9-tetrahydro-1-H-pyrrolo[3.2-h]isoquinoline-2,3-dione-3-oxime hydrochloric acid salt]",11.09 ± 1.42 % of 3 nM NGF,12.78 ± 2.01 % of 3 nM NGF,28.62 ± 1.77 % of 3 nM NGF,32.05 ± 3.36 % of 3 nM NGF,52.60 ± 3.40 % of 3 nM NGF,60.47 ± 2.26 % of 3 nM NGF,74.85 ± 4.67 % of 3 nM NGF,62.08 ± 3.70 % of 3 nM NGF,63.80 ± 4.09 % of 3 nM NGF,dose-dependent rescue,,some effect on neurite outgrowth,significantly potentiate NGF-induced neurite outgrowth,potentiate NGF-induced phosphorylation,potentiate NGF-induced phosphorylation,additive effect,81%,37%
